Measured values from patent US20220283158A1, “METHOD OF IDENTIFYING PEPTIDE ANTIGENS AND USES THEREOF” (HUMANIRAS MIRASOLE S.P.A., priority 2019, published 2022).

System: C57BL6/J 8-week-old male mice
Assay: Immunization of healthy mice with single peptides in adjuvant, echocardiography of heart functionality
Format: in vivo, mouse
Conditions: s.c. 100 μg peptide in CFA day 0, boost in IFA day 21; echocardiography at 2, 5 and 9 weeks; versus CTR- (only CFA)
Experimental: C57BL6/J 8-week-old male mice were screened at baseline for heart functionality, via echocardiography, and randomly divided into 5 experimental groups. Mice belonging to control group (CTR-, only CFA) were injected subcutaneously (immunized, but without antigen: negative control) with 100 μl Complete Freud's Adjuvant (CFA) at day 0 and boosted with 100 μl of Incomplete Freud's Adjuvant (IFA) on day 21. Mice belonging to group 3 (CTR+) were injected subcutaneously (immunized, known antigen: positive control) with 100 μg of each of the three peptides (SEQ ID NOs. 15-17) derived from beta-adrenergic receptor and listed in the Table of FIG. 4, emulsified in Complete Freud's Adjuvant (CFA) at day 0 and boosted with 100 μg of the three peptides emulsified in Incomplete Freud's Adjuvant (IFA) on day 21. Mice belonging to group 4_A (Peptide 4_A) were injected subcutaneously (immunized) with 100 μg of the peptide of SEQ ID NO. 1, derived from 14-3-3 protein, emulsified in Complete Freud's Adjuvant (CFA) at day 0 and boosted with 100 μg of each of the three peptides emulsified in Incomplete Freud's Adjuvant (IFA) on day 21. Mice belonging to group 4_B (Peptide 4_B) were injected subcutaneously (immunized) with 100 μg of the peptide of SEQ ID NO. 5, derived from Snrpd1 protein, emulsified in Complete Freud's Adjuvant (CFA) at day 0 and boosted with 100 μg of each of the three peptides emulsified in Incomplete Freud's Adjuvant (IFA) on day 21. Mice belonging to group 4_C (Peptide 4_C) were injected subcutaneously (immunized) with 100 μg of the peptide of SEQ ID NO. 14, derived from Atp5o protein, emulsified in Complete Freud's Adjuvant (CFA) at day 0 and boosted with 100 μg of each of the three peptides emulsified in Incomplete Freud's Adjuvant (IFA) on day 21. On day 0 and day 2, all the mice were intraperitoneally injected with 200 ng of Pertussis Toxin. Heart functionality of all mice was analyzed via echocardiography at 2, 5 and 9 weeks after the first subcutaneous injection. In FIG. 7, the results of echocardiography analysis of cardiac functionality parameters % FS and % EF of C57BL6/J mice immunized with the peptide of SEQ ID NO. 1 (14-3-3 protein), the peptide of SEQ ID NO. 5 (Snrpd1 protein), or the peptide of SEQ ID NO. 14 (Atp5o protein) are shown. […] Data are plotted as mean±SEM, (n=4-6). Two-way ANOVA and Tukey's multiple comparison test with matching subjects. * p<0.05, ** p<0.01, ***p<0.001.

Substance | % EF | % FS
Peptide 4_A: peptide of SEQ ID NO. 1, derived from 14-3-3 protein (LGLALNFSVFYYEIL; listed as Homo sapiens) | significantly reduced | significantly reduced
Peptide 4_B: peptide of SEQ ID NO. 5, derived from Snrpd1 protein (EPVQLETLSIRGNNIRYFILPDSLP; listed as Homo sapiens) | significantly reduced | significantly reduced
Peptide 4_C: peptide of SEQ ID NO. 14, derived from Atp5o protein (LTANLMNLLAENGRL; listed as Mus musculus) | significantly reduced | significantly reduced
